Data as given in ChEMBL document CHEMBL1201862, “PubChem BioAssay data set” (2004).
The source made the active and inactive calls.

Assays:
[1] = P. falciparum Dd2 growth inhibitors, dose response, SYBR Green, cherry-picked samples (AID 1159567); assay type: functional, cell-based
[2] = off-target signal loss in HeLa-CEM21 co-culture – HeLa F-luc CTL cells, cherry-picked, counter-screen for HIV-1 Env fusion inhibitor project, dose response (AID 652040); assay type: functional, cell-based;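 further: potency for signal decrease marking cytotoxic or nonspecific inhibition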
[3] = ZM109 Env clade C HIV-1 fusion inhibitors, dose response, HeLa effector, CEM target cells, luciferase, cherry-pick (AID 652058); assay type: functional, cell-based
[4] = molecular target: T1, Cytochrome P450 1A2 (Homo sapiens, UniProt P05177);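 further: PubChem cytochrome P450 panel assay, CYP1A2 panel member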
T1 sequence (P05177 whole entry): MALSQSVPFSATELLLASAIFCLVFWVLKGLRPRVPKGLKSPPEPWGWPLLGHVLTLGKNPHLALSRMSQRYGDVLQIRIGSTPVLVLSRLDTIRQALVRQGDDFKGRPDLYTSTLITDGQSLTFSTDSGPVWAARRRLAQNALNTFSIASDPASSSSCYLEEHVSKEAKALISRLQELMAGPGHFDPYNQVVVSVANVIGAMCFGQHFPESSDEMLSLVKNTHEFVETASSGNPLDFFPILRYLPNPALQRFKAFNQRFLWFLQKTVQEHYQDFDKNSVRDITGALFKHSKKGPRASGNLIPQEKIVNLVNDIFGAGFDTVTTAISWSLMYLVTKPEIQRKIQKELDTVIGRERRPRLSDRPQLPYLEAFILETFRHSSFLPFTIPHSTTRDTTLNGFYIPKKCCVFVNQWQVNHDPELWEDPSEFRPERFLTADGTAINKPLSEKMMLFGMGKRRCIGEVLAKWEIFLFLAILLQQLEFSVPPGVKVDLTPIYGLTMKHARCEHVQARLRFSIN

[5] = inhibitors of clade B AD8 Env fusion, dose response, cell-based, cherry-pick (AID 652062); assay type: functional;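 further: luciferase signal from cell-cell fusion driven by HIV-1 clade B AD8 Env; potency is for inhibitors of fusion seen as a drop in luminescence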
[6] = inhibitors of HIV Env-driven cell fusion, dose response, cherry-pick (AID 652057); assay type: functional, cell-based
[7] = molecular target: T2, Zinc finger protein mex-5 (Caenorhabditis elegans, UniProt Q9XUB2); experiment: MEX-5/TCR-2 RNA interaction inhibitors, dose response, biochemical, C. elegans, fluorescence polarization (AID 1960)
T2 sequence (Q9XUB2 whole entry): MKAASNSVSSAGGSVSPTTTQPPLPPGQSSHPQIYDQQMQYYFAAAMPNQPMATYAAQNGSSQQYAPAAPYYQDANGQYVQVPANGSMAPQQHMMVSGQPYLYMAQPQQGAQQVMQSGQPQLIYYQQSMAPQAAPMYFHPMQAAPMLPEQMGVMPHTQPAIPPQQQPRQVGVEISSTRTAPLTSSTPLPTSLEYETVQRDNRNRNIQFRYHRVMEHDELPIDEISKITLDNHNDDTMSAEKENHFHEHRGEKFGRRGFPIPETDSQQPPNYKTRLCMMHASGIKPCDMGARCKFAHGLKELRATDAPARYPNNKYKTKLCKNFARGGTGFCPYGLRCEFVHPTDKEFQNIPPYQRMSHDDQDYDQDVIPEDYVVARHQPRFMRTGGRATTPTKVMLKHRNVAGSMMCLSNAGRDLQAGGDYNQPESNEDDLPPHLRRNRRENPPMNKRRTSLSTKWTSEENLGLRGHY

[8] = molecular target: T3, RNA-binding protein pos-1 (Caenorhabditis elegans, UniProt G5EF15); experiment: inhibitors of POS-1/mex-3 RNA binding, dose response, biochemical, fluorescence polarization (AID 1964);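 further: purified POS-1 fused to maltose binding protein made in E. coli; potency of compounds blocking POS-1 binding to fluorescent RNA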
T3 sequence (G5EF15 whole entry): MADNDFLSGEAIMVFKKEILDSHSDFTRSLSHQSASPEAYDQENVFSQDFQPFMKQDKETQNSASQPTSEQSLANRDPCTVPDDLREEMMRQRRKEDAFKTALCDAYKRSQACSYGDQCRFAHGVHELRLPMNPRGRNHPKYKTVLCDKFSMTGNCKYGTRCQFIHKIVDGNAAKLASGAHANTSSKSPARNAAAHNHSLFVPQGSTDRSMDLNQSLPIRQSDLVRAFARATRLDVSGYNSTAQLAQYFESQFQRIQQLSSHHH

[9] = molecular target: T4, Endoribonuclease toxin MazF (Escherichia coli K-12, UniProt P0AE70); experiment: fluorescent RNA oligo signal without MazF, dose response, counter-screen for MazEF activator project, biochemical, fluorescence, single-stranded RNase substrate (AID 588502); assay type: functional
T4 sequence (P0AE70 whole entry): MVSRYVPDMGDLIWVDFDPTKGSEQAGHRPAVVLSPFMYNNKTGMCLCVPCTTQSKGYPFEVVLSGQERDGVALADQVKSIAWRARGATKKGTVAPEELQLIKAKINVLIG

[10] = molecular target: T4, Endoribonuclease toxin MazF; experiment: MazF toxin RNase activators, dose response, biochemical, fluorescence, single-stranded RNA substrate, uHTS hits (AID 588481); assay type: functional
[11] = molecular target: T5, Streptokinase A (Streptococcus pyogenes serotype M1, UniProt P10520); experiment: S. pyogenes streptokinase expression inhibitors, potency, dose response, plasminogen activation absorbance, OD405 (AID 1914); assay type: functional, Streptococcus pyogenes M1 GAS;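 further: secreted streptokinase activity via plasminogen activation per viability signal from cell pellet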
T5 sequence (P10520 whole entry): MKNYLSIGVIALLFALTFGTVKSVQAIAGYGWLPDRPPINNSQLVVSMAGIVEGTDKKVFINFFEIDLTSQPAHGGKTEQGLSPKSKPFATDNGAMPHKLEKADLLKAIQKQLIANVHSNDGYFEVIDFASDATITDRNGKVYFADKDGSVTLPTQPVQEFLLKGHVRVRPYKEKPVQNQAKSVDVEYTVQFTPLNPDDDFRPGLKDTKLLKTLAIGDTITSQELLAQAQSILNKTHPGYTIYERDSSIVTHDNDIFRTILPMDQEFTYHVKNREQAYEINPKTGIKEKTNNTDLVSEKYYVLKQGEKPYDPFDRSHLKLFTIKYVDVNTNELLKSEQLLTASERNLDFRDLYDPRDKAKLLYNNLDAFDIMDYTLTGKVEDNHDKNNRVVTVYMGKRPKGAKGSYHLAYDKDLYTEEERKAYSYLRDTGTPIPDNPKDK

[12] = C. albicans growth with fluconazole, confirmation, fluorescence, retest (AID 2467); assay type: functional, cell-based
[13] = system: Streptococcus sp. 'group A'; experiment: growth inhibition of control SK(-) GAS strain, dose response, counter-screen for streptokinase expression inhibitor project, luminescence, kanamycin, BacTiterGlo, confirmation (AID 1900); assay type: functional, organism-based
[14] = system: Streptococcus; experiment: Group A Streptococcus viability loss, dose response, counter-screen for streptokinase expression inhibitor project, luminescence, BacTiterGlo (AID 1915); assay type: functional, organism-based;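 further: potency for reduction of bacterial viability or growth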
[15] = NIH-3T3 fibroblast cytotoxicity, dose response, cytotoxicity control, cell-based, fluorescence, Alamar Blue, secondary assay (AID 2327); assay type: functional;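 further: NIH-3T3 mouse fibroblasts cultured with fluconazole at 8 µg/mL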
[16] = HepG2 cell cytotoxicity, dose response, cytotoxicity control, plate reader, cherry-pick, antagonist series (AID 743416); assay type: functional, cell-based
[17] = MC4R antagonists, dose response, counter-screen for LGR2 antagonist project, cell-based, plate reader, cherry pick (AID 743444); assay type: functional;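 further: transfected HEK 293 cells stimulated with alpha-MSH peptide; potency of inhibitors of the alpha-MSH evoked signal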
[18] = LGR2 antagonists, dose response, cell-based, HEK293, CRE-luciferase reporter, cherry pick, set 2 (AID 743343); assay type: functional;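 further: transfected cells were stimulated with diluted bursicon conditioned medium after compound addition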
[19] = A549 cell cytotoxicity, dose response, cytotoxicity control, plate reader, cherry-pick, antagonist series (AID 743412); assay type: functional, cell-based

For Cc1ccccc1S(=O)(=O)N1[C@H](C#N)[C@@H](c2ccc(C#CC3CC3)cc2)[C@@H]1CO, the AC50 [1] was 4.69 µM (active).

For COc1ccc(-c2c(C)nn3c(C(F)(F)F)cc(C)nc23)cc1, the AC50 [2] was 17.8 µM (active).

In the case of O=C(NC1CCCCC1)C(c1cccs1)N(Cc1cccs1)C(=O)c1ccco1 (configuration not stated), the AC50 [3] is reported as 5.68 µM (active), the AC50 [2] is reported as 48.2 µM (active) and the AC50 [4] is reported as 20 µM (inconclusive). For the same compound, the AC50 [5] was 1.55 µM (active) and the AC50 [6] was 6.72 µM (active).

In the case of O=C(Nc1ccccc1)c1nn(-c2ccccc2)c(=O)cc1C(F)(F)F, the EC50 [7] is reported as > 300 µM (not active), the EC50 [8] is reported as > 300 µM (not active) and the EC50 [9] is reported as > 99 µM (inactive). For the same compound, the EC50 [10] was > 99 µM (inactive).

With Cc1ccc(O)c(C2=NNC(c3ccc(Cl)cc3)C2)c1 (configuration not stated) the EC50 [11] was > 150 µM (not active), the EC50 [12] was 3.23 µM (active) and the EC50 [13] was 4.36 µM (active). The EC50 [14] was 9.12 µM (active) and the EC50 [15] was > 160 µM (inactive).

In the case of C[C@H]1CN([C@@H](C)CO)S(=O)(=O)c2ccc(Br)cc2O[C@H]1CN(C)Cc1ccc(F)cc1, the AC50 [3] is reported as 5.86 µM (active), the AC50 [5] is reported as 30.9 µM (active) and the AC50 [6] is reported as 3.67 µM (active).

In the case of Cc1ccoc1C(=O)Nc1ccc2ccccc2c1, the AC50 [16] is reported as 40 µM (active), the AC50 [17] is reported as 9.34 µM (active) and the AC50 [18] is reported as 7.48 µM (active). For the same compound, the AC50 [19] was > 52 µM (inactive).

For CCN(Cc1nc(O)c2ccc(Cl)cc2n1)C(=O)c1cc(C2CC2)nn1-c1ccccc1, the AC50 [3] was 5.14 µM (active), the AC50 [2] was 6.32 µM (active) and the AC50 [5] was 4.62 µM (active). For the same compound, the AC50 [6] was 2.67 µM (active).
